Experimental data from patent publication US10519504B2, “Methods for treatment of oncological disorders using epimetabolic shifters, multidimensional intracellular molecules, or environmental influencers” (Berg LLC, priority 2009, dated 2019).
Read-outs that look alike come from different tables or passages of the source.

Tests used:
[1] = system: Pancreatic Cancer Cells (PaCa2); assay: Real-time PCR Angiogenesis Array; assay type: cell-based
Description: Experiments were carried out essentially as described above.

[2] = system: Pyruvate Dehydrogenase-B (PDH-E1); assay: Western blot, Pyruvate Dehydrogenase beta levels; assay type: cell-based, human
Description: The pyruvate kinase blots were stripped by incubating for 30 minutes with methanol, followed by two 10 minute washes with TBS-T, then 30 minutes of incubation with Stripping buffer at 50 deg C., and followed by two washes with 100 ml or more of TBS-T for 30′ each. The 2 blots were scanned in laser scanner to check for complete stripping. After making sure stripping of the antibody and the ECF reagent has worked, the blots were activated with methanol for 5 seconds, washed with water for 5 minutes, and TBST for 15 minutes. The blots are blocked for 1 hour with 5% blocking reagent in TBS-T at room temperature and then washed 3 times with TBS-T (1X−15′; 2X5′ each) and probed with the antibody for Pyruvate Dehydrogenase in 5% BSA (ABNOVA catalog #H00005162-M03) at 1:500 dilutions) overnight at 4 deg C. with shaking. After the overnight incubation with primary antibody for Pyruvate Dehydrogenase, the membranes were washed 3 times with TBS-T (1X−15′; 2X5′ each) and probed with the secondary antibody (antimouse; 1:10,000 dilution) for 1 h on the orbital tilting shaker at room temperature. […]
The levels of LDH and PDH were determined by probing the blots successively with primary antibodies for LDH and PDH, essentially as described above. […]

[3] = system: induced pancreatic cancer; conditions: for survival after 28 days: intravenous
SCC cells = assay: Real-time PCR Diabetes Array; assay type: cell-based
Source text: The control cells were untreated cells.

PC-3 = assay: Nexin assay for apoptosis (Annexin-V-PE/7-AAD, flow cytometry); assay type: cell-based; conditions: 50 μM and 100 μM Q10, 24 hours, less than in PaCa2
Source text: (§1) The 7AAD dye will enter into cells with permeabilized cell membranes; primarily those cells that are in late apoptosis. Annexin-V-PE is a dye that binds to Phosphotidyl serine, which is exposed on the outer surface of the plasma membrane in early apoptotic cells. The Nexin reagent thus can be used to differentiate between different populations of apoptotic cells in a flow cytometer.

MCF-7 = assay: as above; assay type: cell-based; conditions: 50 μM and 100 μM Q10, 24 hours
Source text: as §1

SK-MEL28 = assay: as above; assay type: cell-based; conditions: 50 μM and 100 μM Q10, 24 hours
Source text: as §1

SKBr3 = assay: as above; assay type: cell-based, human; conditions: 50 μM or 100 μM Q10, 24 hours
Source text: as §1

COC1=C(OC)C(=O)C(C/C=C(\C)CC/C=C(\C)CC/C=C(\C)CC/C=C(\C)CC/C=C(\C)CC/C=C(\C)CC/C=C(\C)CC/C=C(\C)CC/C=C(\C)CCC=C(C)C)=C(C)C1=O [Q10, Coenzyme Q10]
angiogenesis array genes (AKT1, ANGPTL4 ... VEGFA, VEGFB as listed) ([1]; 100 uM Q10): modulated by Q10 treatment | genes from the angiogenesis array whose expression is regulated ([1]; 100 μM Q10, genes: ANGPTL4, CDH5, FGF1, AKT1, ANPEP, CCL2, CXCL1, EDG1, EFNB2, EGF, ILIB, IL8, KDR, NRP1, PECAM1, PROK2, SPHK1, STAB1, VEGFA): A list of genes from the angiogenesis array whose expression is regulated | expression of PDH-E1 ([2]; cancer cells): progressive increase in the expression of the PDH-E1 proteins | expression of PDH-E1 ([2]; normal cells): minimal changes in the normal cells | dose response of survival ([3]; 5 to 50 mg/kg): those animals receiving higher doses had a higher survival rate | survival after 28 days ([3]; Group G: 50 mg/kg): all of the animals receiving the highest dose of coenzyme Q10 (Group G) remained alive at 28 days | survival after 28 days ([3]; Groups D, E, F: 5, 10, 25 mg/kg): most of the animals in Groups D, E and F remained alive | TNFRSF1A Regulation (SCC cells; 100 μM Q10, at 6 and 24 hours): Down regulated at 6 | G6PD Regulation (SCC cells; 100 μM Q10, at 6 hours): Down regulated at 6 | ICAM1 Regulation (SCC cells; 100 μM Q10, at 6 hours): Down regulated at 6 | INPPL1 Regulation (SCC cells; 100 μM Q10, at 6 hours): Down regulated at 6 | NOS3 Regulation (SCC cells; 100 μM Q10, at 6 hours): Down regulated at 6 | PIK3CD Regulation (SCC cells; 100 μM Q10, at 6 hours): Down regulated at 6 | PPARA Regulation (SCC cells; 100 μM Q10, at 6 hours): Down regulated at 6 | PYGL Regulation (SCC cells; 100 μM Q10, at 6 hours): Down regulated at 6 | SREBF1 Regulation (SCC cells; 100 μM Q10, at 6 hours): Down regulated at 6 | STXBP2 Regulation (SCC cells; 100 μM Q10, at 6 hours): Down regulated at 6 | TNF Regulation (SCC cells; 100 μM Q10, at 6 hours): Down regulated at 6 | VEGFA Regulation (SCC cells; 100 μM Q10, at 6 hours): Down regulated at 6 | early and late apoptotic population (PC-3): increase in both early and late apoptotic population | apoptotic population (MCF-7): increase only in early apoptotic population | apoptotic population (SK-MEL28): increase only in early apoptotic population | early and late apoptosis (SKBr3): did not show any significant increases of early and late apoptosis
